In one data set the test system is HIV-1 LTR. The data set is described as follows: ChIP assay of acetylated histone H3 at the HIV-1 LTR. In kind it is cell-based. Particulars: JLAT10.6 cells, 6 hours, HIV-1 LTR qPCR. The procedure: Since histone H3 is […] by Class I HDACs and known to bind to the HIV LTR promoter, we determined H3 acetylation status of the HIV-1 LTR in JLAT10.6 cells. […] The ChIP assay was performed using a ChIP kit (ab500) (Abcam; Cambridge, Mass.). Briefly, an anti-rabbit IgG (Cell Signaling Technologies; Danvers, Mass.) was used as an isotype control. Actin was used as an internal control. Total chromatin (input) and the immunoprecipitated chromatin were used as templates and HIV-1 LTR was amplified by quantitative PCR using HIV-1 LTR (forward: 5-[…] […]-3, reverse: 5-TAG […] A-3) and actin primers. Using ChIP, we recovered 15% of the DNA from SDL148-treated cells using anti-acetylated histone H3 antibody compared to less than 5% recovery with DMSO-treated cells, and less than 1% from the IgG-negative controls. […] An alternative mechanism is modulation of lysines in Tat that impact its ability to interact with TAR of the HIV-1 LTR (37-39).

For data set [1] the following is noted: mice; cited from earlier work.
In a further data set the target is HDAC3 (Homo sapiens, UniProt O15379). Particulars: cited from earlier work.
Sequence of HDAC3 (O15379 whole entry): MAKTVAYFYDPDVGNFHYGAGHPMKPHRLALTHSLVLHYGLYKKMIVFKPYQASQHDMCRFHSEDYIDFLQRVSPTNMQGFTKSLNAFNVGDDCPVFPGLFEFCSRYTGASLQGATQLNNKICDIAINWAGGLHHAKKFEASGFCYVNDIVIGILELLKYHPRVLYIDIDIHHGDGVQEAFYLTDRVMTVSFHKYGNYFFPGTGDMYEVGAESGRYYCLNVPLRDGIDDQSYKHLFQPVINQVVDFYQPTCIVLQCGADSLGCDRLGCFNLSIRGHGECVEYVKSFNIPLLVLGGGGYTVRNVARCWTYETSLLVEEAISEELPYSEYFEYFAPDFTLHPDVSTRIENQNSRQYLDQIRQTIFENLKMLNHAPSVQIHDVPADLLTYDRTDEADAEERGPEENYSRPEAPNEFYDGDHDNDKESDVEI
Sequence of HDAC3 (Q9Y618 395-489 partner limits assumed): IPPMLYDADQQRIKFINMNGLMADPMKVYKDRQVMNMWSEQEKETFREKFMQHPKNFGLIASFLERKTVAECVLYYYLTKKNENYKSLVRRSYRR
The subject of a further data set is HIV Gag. The data set is described as follows: Western blot for HIV Gag in JLAT10.6 cells. The data set is classed as cell-based. Particulars: 24 h. In general terms: A western blot detects proteins with antibodies after separation by electrophoresis.
The subject of the next data set is JLAT10.6 cells. The data set is described as follows: HIV-1 latency reactivation screen in JLAT10.6 cells (GFP by FACS). The data set is classed as cell-based. The procedure: For screening purposes, JLAT10.6 cells, a T-cell line that has been widely used for HIV-1 reactivation studies (32-34) were utilized. In this cell line, HIV-1Δenv from the NL4-3 backbone with GFP replacing the Nef gene is stably integrated into the genome and is expressed at undetectable levels. Upon HIV reactivation with latency reversing agents (LRAs), viral production leads to expression of GFP that was measured by fluorescent activation cell sorting (FACS) analysis using a Becton Dickinson FACS machine. Analysis was performed using BD […] PRO software (BD Biosciences; Franklin Lakes, N.J.). The stronger the HIV reactivation, the higher the percentage of GFP-positive cells observed. JLAT10.6 cells were incubated with HDAC inhibitors at concentrations of 1 and 10 μM for 24 hours, using TNF-α and SAHA (Vorinostat) as positive controls.

The test system of another data set is Class I HDAC. The data set is described as follows: Western blot for acetylated histone H3 as a measure of Class I HDAC inhibition. In kind it is cell-based. The settings on record: Jurkat cells and primary resting CD4+ T-cells, 8 hours.
The test system of another data set is Class II HDAC. The data set is described as follows: Western blot for acetylated tubulin as a measure of Class II HDAC inhibition. The data set is classed as cell-based. Particulars: Jurkat cells and primary resting CD4+ T-cells, 8 hours.

Take largazole [SDL148]: the “DNA recovered using anti-acetylated histone H3 antibody” value in the data set with HIV-1 LTR was determined as 15%. Besides, in data set [1], the bioavailability entry is “excellent bioavailability”. The “potency against HDAC3” value on HDAC3 is on record as “picomolar range”. Moreover, the “expression of HIV Gag” value with HIV Gag is given as “enhanced expression of HIV Gag”. For the same compound, the “reactivation of HIV expression at 100 nM” value with JLAT10.6 cells (100 nM) is on record as “the only compound able to reactivate HIV expression significantly”. The “potency in reactivating HIV from latency compared with vorinostat” value with JLAT10.6 cells (1 and 10 μM, 24 hours) is listed as “comparable or more potent than vorinostat”. The EC50 in the data set on JLAT10.6 cells (read-out: EC50 to reactivate HIV from latency) came out at 150 nM.
For the compound `O=C(CCCCCCC(=O)Nc1ccccc1)NO` [SAHA, suberoylanilide hydroxamic acid], in the data set with Class I HDAC, the “histone H3 acetylation” value is “enhanced the acetylation of both histone H3 and tubulin”. Also, the acetylation of tubulin entry in the data set on Class II HDAC is “enhanced the acetylation of both histone H3 and tubulin”.

A word on the EC50: it is the midpoint of the concentration-response curve.

These data come from patent US20190290621A1, “COMPOSITIONS AND METHODS FOR TREATING HIV-1 LATENCY” (priority 2017, published 2019).
